Experimental data taken from patent US4234586A, “Nitrogen bridgehead compounds having anti-allergic effect” (Chinoin Gyogyszer es Vegyeszeti Termekek Gyara Rt., priority 1977, dated 1980).
Each block holds one molecule with its values, some of them ahead of it.

Columns and labels:
rats [1] = test: PCA test (antiallergic effect, rats); type: in vivo, rat; conditions: for ED50 / inhibition in vivo at 320 µM, 320 µmol/kg: Rattus norvegicus; for inhibition in vivo at 320 µM, 320 µmol/kg: single dose of 320 μM/kg, route not given, read-out: PCA test, percentage of activity for a single dose of 320 μM/kg
Protocol: (§1) The PCA text [Ovary: J. Immun. 81, 355 (1958)] and the Church test [British J. Pharm. 46, 56-66 (1972); Immunology 29, 527-534 (1975)] were used. The tests were carried out on rats.

rats [2] = test: Church test (antiallergic effect, rats); type: in vivo; conditions: Rattus norvegicus, iv
Protocol: as §1

asthma = conditions: desired effect only by inhalation (spinhaler); cited from earlier work
Released Hist. = Released Hist. in vitro; type: cell-based; conditions: Rattus norvegicus
Protocol: as §1

[3] = iv, rats, i.v., read-out: PCA test ED50 i.v.
[4] = po, rats, p.o., read-out: PCA test ED50 p.o.
[5] = iv, read-out: ED50 in the PCA test, further compounds
[6] = iv, rats, i.v., second part of Table 1, read-out: PCA test ED50 i.v.

SMILES: CC1CCC(=NNc2ccccc2)c2ncc(C(=O)O)c(=O)n21 (single isomer, unassigned; (+)) [Example 37, (+)-9-(phenyl-hydrazono)-6-methyl-4-oxo-6,7,8,9-tetrahydro-4H-pyrido(1,2-a)pyrimidine-3-carboxylic acid]
ED50 (rats [1]; [3]): 0.29 µmol/kg | ED50 (rats [1]; [4]): 1 µmol/kg | ED50 (rats [2]): 0.14 µmol/kg

SMILES: O=C(O)c1cc(=O)c2c(OCC(O)COc3cccc4oc(C(=O)O)cc(=O)c34)cccc2o1 [Disodium-chromoglycate, reference compound]
ED50 (rats [1]; [3]): 1 µmol/kg | activity by route of administration (in words) (rats [1]; oral vs intravenous): effective only when administered intravenously | PCA test ED50 p.o. (result in words) (rats [1]; rats, p.o.): ineffective | ED50 (rats [2]): 0.84 µmol/kg | anti-asthmatic effect when administered orally (asthma): ineffective when administered orally

SMILES: CC1CCC(=NNc2ccccc2)c2ncc(C(=O)O)c(=O)n21 (centres unmarked) [Example 14, 9-(phenyl-hydrazono)-6-methyl-4-oxo-6,7,8,9-tetrahydro-4H-pyrido(1,2-a)pyrimidine-3-carboxylic acid]
ED50 (rats [1]; [3]): 0.6 µmol/kg | ED50 (rats [1]; [4]): 1.2 µmol/kg | ED50 (rats [2]): 0.31 µmol/kg

SMILES: CC1CCC(=NNc2ccccc2C(=O)O)c2ncc(C(=O)O)c(=O)n21 (centres unmarked) [Example 17, 9-(o-carboxy-phenyl-hydrazono)-6-methyl-4-oxo-6,7,8,9-tetrahydro-4H-pyrido(1,2-a)pyrimidine-3-carboxylic acid]
ED50 (rats [1]; [5]): 0.48 µmol/kg

SMILES: CC1CCC(=NN)c2ncc(C(=O)O)c(=O)n21 (centres unmarked) [Example 26, 9-hydrazono-6-methyl-4-oxo-6,7,8,9-tetrahydro-4H-pyrido(1,2-a)pyrimidine-3-carboxylic acid]
inhibition in vivo at 320 µM, 320 µmol/kg (rats [1]; rats): 89% | EC50 (Released Hist.; third part of Table 1): 90 µM

SMILES: CCOc1ccc(NN=C2CCC(C)n3c2ncc(C(=O)O)c3=O)cc1 (centres unmarked) [Example 35, 9-(p-ethoxy-phenyl-hydrazono)-6-methyl-4-oxo-6,7,8,9-tetrahydro-4H-pyrido(1,2-a)pyrimidine-3-carboxylic acid]
ED50 (rats [1]; [5]): 1 µmol/kg | inhibition in vivo at 320 µM, 320 µmol/kg (rats [1]; rats): 100% | EC50 (Released Hist.; third part of Table 1): 17.6 µM

SMILES: CC1CCC(=NNc2ccc(Cl)c(Cl)c2)c2ncc(C(=O)O)c(=O)n21 (centres unmarked) [Example 41, 9-(3,4-dichloro-phenyl-hydrazono)-6-methyl-4-oxo-6,7,8,9-tetrahydro-4H-pyrido-(1,2-a)pyrimidine-3-carboxylic acid]
inhibition in vivo at 320 µM, 320 µmol/kg (rats [1]; rats): 100% | EC50 (Released Hist.; third part of Table 1): 100 µM

SMILES: CC1CCC(=NNc2ccc(C(=O)O)cc2)c2ncc(C(=O)O)c(=O)n21 (centres unmarked) [Example 48, 9-(4-carboxy-phenyl-hydrazono)-6-methyl-4-oxo-6,7,8,9-tetrahydro-4H-pyrido(1,2-a)pyrimidine-3-carboxylic acid]
inhibition in vivo at 320 µM, 320 µmol/kg (rats [1]; rats): 100% | EC50 (Released Hist.; third part of Table 1): 100 µM

Now from value to molecule, other results behind:

EC50 (Released Hist.; third part of Table 1): 2 µM
SMILES: CC1CCC(=NNc2ccc(Br)cc2)c2ncc(C(=O)O)c(=O)n21 (centres unmarked) [Example 16, 9-(p-bromo-phenyl-hydrazono)-6-methyl-4-oxo-6,7,8,9-tetrahydro-4H-pyrido(1,2-a)pyrimidine-3-carboxylic acid]
inhibition in vivo at 320 µM, 320 µmol/kg (rats [1]; rats): 100%

EC50 (Released Hist.; second part of Table 1): 100 µM
SMILES: CC1CCC(=NNc2ccc(Cl)cc2)c2ncc(C(=O)O)c(=O)n21 (centres unmarked) [Example 18, 9-(p-chloro-phenyl-hydrazono)-6-methyl-4-oxo-6,7,8,9-tetrahydro-4H-pyrido(1,2-a)pyrimidine-3-carboxylic acid]
ED50 (rats [1]; [6]): 0.53 µmol/kg | ED50 (rats [1]; [5]): 0.53 µmol/kg

EC50 (Released Hist.; second part of Table 1): 120 µM
SMILES: CC1CCC(=NNc2cccnc2)c2ncc(C(=O)O)c(=O)n21 (centres unmarked) [Example 23, 6-methyl-9-(3-pyridyl-hydrazono)-4-oxo-6,7,8,9-tetrahydro-4H-pyrido(1,2-a)pyrimidine-3-carboxylic acid]
ED50 (rats [1]; [6]): 0.53 µmol/kg | ED50 (rats [1]; [5]): 0.54 µmol/kg

EC50 (Released Hist.; third part of Table 1): 100 µM
SMILES: CC1CCC(=NNc2cccc([N+](=O)[O-])c2)c2ncc(C(=O)O)c(=O)n21 (centres unmarked) [Example 43, 9-(3-nitro-phenyl)-hydrazono-6-methyl-4-oxo-6,7,8,9-tetrahydro-4H-pyrido(1,2-a)pyrimidine-3-carboxylic acid]
inhibition in vivo at 320 µM, 320 µmol/kg (rats [1]; rats): 100%

EC50 (Released Hist.; third part of Table 1): 312 µM
SMILES: CC1CCC(=NNc2cccc(Cl)c2)c2ncc(C(=O)O)c(=O)n21 (centres unmarked) [Example 45, 9-(3-chloro-phenyl-hydrazono)-6-methyl-4-oxo-6,7,8,9-tetrahydro-4H-pyrido(1,2-a)pyrimidine-3-carboxylic acid]
inhibition in vivo at 320 µM, 320 µmol/kg (rats [1]; rats): 100%

EC50 (Released Hist.; third part of Table 1): 73 µM
SMILES: Cc1cccc(NN=C2CCC(C)n3c2ncc(C(=O)O)c3=O)c1 (centres unmarked) [Example 50, 9-(3-methyl-phenyl-hydrazono)-6-methyl-4-oxo-6,7,8,9-tetrahydro-4H-pyrido(1,2-a)pyrimidine-3-carboxylic acid]
inhibition in vivo at 320 µM, 320 µmol/kg (rats [1]; rats): 100%
